Measurements reported in patent publication US5350748A, “3-thio or amino substituted-benzo[b]thiophene-2-carboxamides and 3-oxygen, thio, or amino substituted-benzofuran-2-carboxamides as inhibitors of cell adhesion” (Warner-Lambert Company, priority 1993, dated 1994).

Assays:
[1] = system: human neutrophil adhesion to TNF-α-stimulated human umbilical vein endothelial cells (HUVEC); assay: Inhibition of human neutrophil adhesion to TNF-α-stimulated human umbilical vein endothelial cells (51Cr-labeled neutrophils); format: cell-based; details: neutrophils labeled with Cr, read-out: Adhesion ECA, % inhibition
Experimental: (§1) The 3-thiol, thioether, amino, alkylamino, or arylamino-benzo[b]thiophene-2-carboxamides and 3-alkoxy, aryloxy, thiol, thioether, amino, alkylamino, or arylamino-benzofuran-2-carboxamides have been shown in an in vitro assay to prevent the adhesion of neutrophils to human umbilical vein endothelial cells (HUVECS) stimulated with TNF-α. In this assay, HUVECS are stimulated with TNF-α for 4 hours, after which the cells are assayed for their ability to adhere to human neutrophils labeled with either ^51 Cr or calcein, a fluorescent dye. The details of this assay are described in the DETAILED DESCRIPTION.
Method for Determining the Inhibition of Human Neutrophil Adhesion to TNF-α, IL-1α, and LPS-Stimulated Human Umbilical Vein Endothelial Cells
(§2) Neutrophils were isolated from anticoagulant-treated venous blood obtained from healthy human volunteers according to the method of Ferrante and Thong [J. Immunol. Methods 24, 389-93 (1978)]. The cell preparations consisted of greater than 98% neutrophils.
Second passage human umbilical vein endothelial cells (HUVEC) (Clonetics, San Diego, Calif.) were seeded into Falcon 24-well cell culture plates (Becton Dickinson, Lincoln Park, N.J.) at approximately 2×10^4 cells per well. The cells were grown to confluent monolayers in endothelial basal medium (EBM, Clonetics) supplemented with 5% fetal calf serum (Hyclone Laboratories, Logan, Utah), 10 ng/mL EGF, 1 μg/mL hydrocortisone, 0.4% bovine brain extract (Clonetics) in 5% CO2 at 37° C.
Neutrophils (30×10^6) were labeled for 60 minutes at 37° C. with 100 μCi Na^51 CrO4 (ICN Biomedicals, Costa Mesa, Calif.) in 2.0 mL Ca^2+ - and Mg^2+ -free Hanks' balanced salt solution (HBSS, GIBCO Laboratories, Grand Island, N.Y.). […]
Stimulation of HUVEC with tumor necrosis factor-α (TNF-α) (Genzyme, Cambridge, Mass.), interleukin (IL-1α) (Genzyme) or E. coli 0111: B4 lipopolysaccharide (LPS) (Sigma) in the presence or absence of drug was initiated 4 hours prior to the addition of neutrophils. […] Lysates were collected and the radioactivity in each well was determined by gamma ray spectroscopy.

[2] = system: HIV-1 activation in OM-10.1 cells; details: poster NCDDG/AIDS, San Diego, 1991; some 48 compounds evaluated; cited from earlier work
[3] = system: HIV-1 activation in OM-10.1 cells; assay: Inhibition of activation of latent HIV-1 in chronically infected OM-10.1 cells; format: cell-based; details: Human immunodeficiency virus 1
Source text: The cellular pathways involved in mediating the activating signal from the plasma membrane to the integrated virus, resulting in HIV-1 expression, are much less clear. Recently, the development of a reliable and simple system for evaluating compounds that could prevent activation of latent HIV was reported at the National […] (NCDDG)/AIDS by P. Feorino, S. T. Butera, T. M. Folks, and R. F. Schinazi, San Diego, Calif., Nov. 3-7, 1991. The assay system employed the OM-10.1 cell line, a unique chronically-infected promyelocytic clone which remains CD4+ until HIV-1 activation with tumor necrosis factor-α. The expression of CD4+ on the cell surface and the activity of reverse transcriptase are used as markers for quantitating viral expression. Alternatively, other HIV markers, such as protease activity, which are known to those of skill in the art can be used. OM-10.1 cells remain CD4^+ until viral activation and respond to tumor necrosis factor induction, and therefore, these cultures are used to conveniently and rapidly examine pharmacologics for an ability to prevent CD4^+ down modulation (decrease in expression of CD4^+ on the cell surface) and HIV-1 expression.
A variety of compounds known to have antiviral properties against either acutely or chronically infected cells were evaluated for their ability to inhibit HIV expression in these OM-10.1 cells. […]

[4] = system: human neutrophil adhesion to TNF-α-stimulated human umbilical vein endothelial cells (HUVEC); assay: Modified method: inhibition of human neutrophil adhesion to TNF-α-stimulated human umbilical vein endothelial cells (calcein-labeled neutrophils); format: cell-based; details: footnote a, neutrophil label not given, IC50 by linear regression from 33.3, 10.0, 3.3 and 1.0 μM, read-out: Adhesion ECA, IC50
Experimental: as §1, §2
Modified Method for Determining the Inhibition of Human Neutrophil Adhesion to TNF-α, IL-1α, and LPS Stimulated Human Umbilical Vein Endothelial Cells
The previous assay using ^51 Cr labeled human neutrophils has been modified. The neutrophils are now labeled with the fluorescent dye calcein. The current method allows for quantification of neutrophil adherence by fluorescence spectroscopy.
Second passage HUVEC (Clonetics Corporation, San Diego, Calif., CC-2617) were seeded into Coring (Corning glass works, Corning, N.Y.) 96-well cell culture plates at approximately 5×10^3 cells/well and grown to confluency in supplemented endothelial basal medium (EBM, MCDB-131, Clonetics, 10 ng/mL EGF, 1 μg/mL hydrocortisone, 0.4% bovine brain extract, 5% Fetal Bovine Serum). One day prior to running the assay, typically 3 days postseeding, the cultures were refed with 0.2 mL/well supplemented EBM (S-EBM).
Test compounds were prepared as 10 mL stock solutions at a concentration of 1.0 mM. The compounds were initially solubilized in 0.1 mL DMSO followed by the addition of 9.9 mL S-EBM. The drug preparations were then diluted in one step to a concentration of 66.6 μM or 200 μM. Solubilizations and dilutions were performed in polystyrene containers.
Recombinant human tumor necrosis factor-α (TNF, Genzyme, Boston, Mass., code TNF-H) was prepared at 400 U/mL in S-EBM. Stock TNF was prepared to 20,000 U/mL in Delbecco's phosphate-buffered saline (PBS, Gibco, Grand Island N.Y.) plus 0.1% BSA and stored at -70° C. HUVEC were washed one time with 0.2 mL warm unsupplemented EBM and then stimulated for 4hours at 37° C. with 200 U/mL TNF in the presence of 33.3 μM or 100 μM test compound. This was accomplished by adding 0.1 mL of 400 U/mL TNF and 0.1 mL 66.6 μM or 0.1 mL of 200 μM test compound. These additions were done slowly as to not disrupt the HUVEC monolayer. Each compound was tested in six wells. Unstimulated (vehicle control) and TNF-stimulated without test compound treatments were also run in each plate.
One hour prior to adding the neutrophils (isolated as previously described) to the HUVEC, neutrophils (5×10^6 /mL) were labeled for 30 minutes at 37° C. with 5 μM calcine-AM (Molecular Probes, Eugene, Oreg.) in Hanks' balanced salt solution plus 0.45% BSA. Stock calcein was prepared to 5mM in anhydrous DMSO and stored desiccated at -20° C. At the end of the incubation the cells were washed two times in cold HBSS and resuspended to a final concentration of 1×10^6 cells/mL in unsupplemented EBM.
At the end of the 4-hour stimulation and immediately prior to the addition of the neutrophils to the HUVEC monolayer, the plates were washed with 0.2 ml warm unsupplemented EBM to remove TNF and drug. Neutrophils (1×10^5 cells) were slowly added to each of the treated wells and incubated for 30 minutes at 37° C. At the end of the incubation the plates were washed two times with 0.2 mL warm unsupplemented EBM followed by a final addition of 0.1 mL for plate scanning.
The fluorescence was determined using a Millipore Cytofluor 2300 system (excitation=480, emission=530, sensitivity=4). […]

Compound	inhibition at 100 µM [1]	inhibition of activation of HIV-1 in OM-10.1 cells [2]	also measured
COc1ccc2sc(C(N)=O)c(Sc3ccccc3)c2c1 [Example 5, 5-Methoxy-3-(phenylthio)benzo[b]thiophene-2-carboxamide]	48%	–	–
CC(=O)N(O)CCCCCNC(=O)CCC(=O)N(O)CCCCCNC(=O)CCC(=O)N(O)CCCCCN [desferrioxamine]	–	modest inhibitors of the activation of HIV-1	–
interferon Y: interferon Y, considered modest inhibitor of the activation of HIV-1 (probably interferon gamma)	–	modest inhibitors of the activation of HIV-1	–
COc1ccc2sc(C(N)=O)c(SC)c2c1 [Example 4, 5-Methoxy-3-(methylthio)benzo[b]thiophene-2-carboxamide]	81%	–	–
Cc1cn([C@H]2C[C@H](F)[C@@H](CO)O2)c(=O)[nH]c1=O [3'-fluoro-3'-deoxythymidine (FLT), 3'-fluoro-3'-deoxythymidine]	–	modest inhibitors of the activation of HIV-1	–
CC(C)Sc1c(C(N)=O)sc2ccccc12 [Example 2, 3-[(1-Methylethyl)thio]benzo[b]thiophene-2-carboxamide]	34%	–	–
COc1ccc2sc(C(N)=O)c(SC(C)C)c2c1 [Example 1, 5-Methoxy-3-[(1-methylethyl)thio]benzo[b]thiophene-2-carboxamide]	–	–	IC50 [3]: 400 nM; IC50 [4]: 11.7 µM
